# Source: the supplement of paper PMC6045584
# ± gives the standard deviation of the averaged measurements.
# Compound: CC(=O)NCC(=O)N1[C@@H]2CC[C@H]1c1ccc(Nc3ncc(C(F)(F)F)c(NC4CCC4)n3)cc12
# Test: surviving fraction relative to DMSO-only wells; higher = less growth inhibition
# Conditions: 0.5 nM; exposure time: 5 days
# Summary of the method: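 Viability values are CellTiter-Glo luminescence readings, given as surviving fraction against the median of DMSO-only wells. The readings were taken after 10 minutes at room temperature, following five days of continuous exposure to inhibitors at 0.5, 1, 5, 10, 50, 100, 500 and 1000 nM that began 24 hours after log-phase tumour cell lines were seeded at 250–500 cells per well in 384-well plates. Every line was screened three times and kept only if replicate Pearson r >0.7 and median Z' >0.3.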
row,Test System,surviving fraction
1,MG63 BONE,0.974 ± 0.0053
2,MHM BONE,0.986 ± 0.016
3,NCIH441 LUNG,0.945 ± 0.064
4,NOS1 BONE,1.25 ± 0.038
5,NY BONE,0.962 ± 0.012
6,OS25HAL BONE,0.962 ± 0.045
7,OSHN BONE,1.01 ± 0.028
8,RDES SOFT TISSUE,1.25 ± 0.15
9,SCC47 HEADNECK,0.82 ± 0.0084
10,SCC90 HEADNECK,0.769 ± 0.12
11,SG27 HEADNECK,1.04 ± 0.03
12,SG28 HEADNECK,1.06 ± 0.12
13,SG31 HEADNECK,0.909 ± 0.13
14,SG32 HEADNECK,1.19 ± 0.078
15,SG43 HEADNECK,1.01 ± 0.065
16,SIHA CERVIX,0.799 ± 0.044
17,SJSA1 BONE,1.06 ± 0.086
18,SKBR3 BREAST,1.09 ± 0.12
19,SNU475 LIVER,0.9533 ± 0.0031
20,SUM44 BREAST,1.04 ± 0.039
21,SUM149.B1*.S BREAST,1 ± 0.017
22,SUM159 BREAST,1.11 ± 0.22
23,SYO1 SYNOVIAL,0.943 ± 0.061
24,T47D BREAST,0.9824 ± 0.0044
25,U2OS BONE,1.07 ± 0.016
26,VCAP PROSTATE,1.06 ± 0.051
27,VP229 BREAST,1.08 ± 0.051
28,YAMATO SYNOVIAL,1.06 ± 0.048
29,ZR751 BREAST,0.874 ± 0.18

# Same assay, conditions: 1 nM; exposure time: 5 days
row,Test System,surviving fraction
1,MG63 BONE,0.966 ± 0.015
2,MHM BONE,0.989 ± 0.031
3,NCIH441 LUNG,0.954 ± 0.056
4,NOS1 BONE,1.29 ± 0.1
5,NY BONE,0.941 ± 0.029
6,OS25HAL BONE,0.9613 ± 0.0038
7,OSHN BONE,1 ± 0.029
8,RDES SOFT TISSUE,1.26 ± 0.18
9,SCC47 HEADNECK,0.815 ± 0.033
10,SCC90 HEADNECK,0.816 ± 0.048
11,SG27 HEADNECK,1.05 ± 0.042
12,SG28 HEADNECK,1.03 ± 0.036
13,SG31 HEADNECK,1.05 ± 0.18
14,SG32 HEADNECK,1.02 ± 0.12
15,SG43 HEADNECK,1.18 ± 0.26
16,SIHA CERVIX,0.859 ± 0.034
17,SJSA1 BONE,1.08 ± 0.061
18,SKBR3 BREAST,0.942 ± 0.2
19,SNU475 LIVER,0.962 ± 0.038
20,SUM44 BREAST,0.997 ± 0.013
21,SUM149.B1*.S BREAST,1.01 ± 0.037
22,SUM159 BREAST,1.08 ± 0.16
23,SYO1 SYNOVIAL,0.955 ± 0.024
24,T47D BREAST,1.02 ± 0.014
25,U2OS BONE,1.02 ± 0.04
26,VCAP PROSTATE,1.05 ± 0.086
27,VP229 BREAST,1.1 ± 0.12
28,YAMATO SYNOVIAL,1.02 ± 0.049
29,ZR751 BREAST,0.927 ± 0.062

# Same assay, conditions: 5 nM; exposure time: 5 days
row,Test System,surviving fraction
1,MG63 BONE,0.99 ± 0.024
2,MHM BONE,0.979 ± 0.019
3,NCIH441 LUNG,0.939 ± 0.065
4,NOS1 BONE,1.53 ± 0.21
5,NY BONE,0.9803 ± 0.0061
6,OS25HAL BONE,0.97 ± 0.024
7,OSHN BONE,1 ± 0.025
8,RDES SOFT TISSUE,1.3 ± 0.047
9,SCC47 HEADNECK,1.01 ± 0.099
10,SCC90 HEADNECK,0.936 ± 0.035
11,SG27 HEADNECK,0.868 ± 0.14
12,SG28 HEADNECK,0.972 ± 0.15
13,SG31 HEADNECK,1.03 ± 0.26
14,SG32 HEADNECK,0.952 ± 0.044
15,SG43 HEADNECK,0.8 ± 0.25
16,SIHA CERVIX,0.933 ± 0.053
17,SJSA1 BONE,1.08 ± 0.047
18,SKBR3 BREAST,1.07 ± 0.18
19,SNU475 LIVER,0.9607 ± 0.0076
20,SUM44 BREAST,1.09 ± 0.028
21,SUM149.B1*.S BREAST,0.979 ± 0.017
22,SUM159 BREAST,1.1 ± 0.21
23,SYO1 SYNOVIAL,0.93 ± 0.08
24,T47D BREAST,1.03 ± 0.032
25,U2OS BONE,1.04 ± 0.061
26,VCAP PROSTATE,1.08 ± 0.11
27,VP229 BREAST,1.02 ± 0.15
28,YAMATO SYNOVIAL,1.1 ± 0.061
29,ZR751 BREAST,0.923 ± 0.12

# Same assay, conditions: 10 nM; exposure time: 5 days
row,Test System,surviving fraction
1,MG63 BONE,0.987 ± 0.013
2,MHM BONE,0.999 ± 0.011
3,NCIH441 LUNG,0.927 ± 0.12
4,NOS1 BONE,1.21 ± 0.095
5,NY BONE,0.964 ± 0.03
6,OS25HAL BONE,0.947 ± 0.015
7,OSHN BONE,0.993 ± 0.05
8,RDES SOFT TISSUE,1.3 ± 0.079
9,SCC47 HEADNECK,0.974 ± 0.1
10,SCC90 HEADNECK,0.991 ± 0.089
11,SG27 HEADNECK,1.04 ± 0.079
12,SG28 HEADNECK,0.991 ± 0.13
13,SG31 HEADNECK,0.808 ± 0.041
14,SG32 HEADNECK,1.14 ± 0.031
15,SG43 HEADNECK,0.923 ± 0.17
16,SIHA CERVIX,0.978 ± 0.042
17,SJSA1 BONE,1.03 ± 0.016
18,SKBR3 BREAST,1 ± 0.16
19,SNU475 LIVER,0.899 ± 0.051
20,SUM44 BREAST,1.06 ± 0.13
21,SUM149.B1*.S BREAST,0.976 ± 0.038
22,SUM159 BREAST,1.07 ± 0.16
23,SYO1 SYNOVIAL,0.893 ± 0.078
24,T47D BREAST,1.05 ± 0.046
25,U2OS BONE,1.01 ± 0.014
26,VCAP PROSTATE,0.935 ± 0.053
27,VP229 BREAST,0.999 ± 0.04
28,YAMATO SYNOVIAL,1.14 ± 0.058
